Results published in ChEMBL document CHEMBL1148552, “Pulvinones as bacterial cell wall biosynthesis inhibitors” (Bioorg Med Chem Lett, 2006).
Values after ≈ are worked out from the molar mass of the structure shown.

Key:
[1] = system: Enterococcus faecalis; assay: Antibacterial activity against vancomycin resistant Enterococcus faecalis; type: functional; details: GC 2242
[2] = system: Streptococcus pneumoniae; assay: Antibacterial activity against penicillin resistant Streptococcus pneumoniae; type: functional; details: GC 1894
[3] = system: Enterococcus faecalis; assay: Antibacterial activity against Enterococcus faecalis; type: functional; details: GC 4555
[4] = biological target: T1, UDP-N-acetylmuramoylalanine--D-glutamate ligase (Escherichia coli K-12, UniProt P14900); assay: Inhibitory activity against MurD in Escherichia coli
T1 sequence (P14900 whole entry): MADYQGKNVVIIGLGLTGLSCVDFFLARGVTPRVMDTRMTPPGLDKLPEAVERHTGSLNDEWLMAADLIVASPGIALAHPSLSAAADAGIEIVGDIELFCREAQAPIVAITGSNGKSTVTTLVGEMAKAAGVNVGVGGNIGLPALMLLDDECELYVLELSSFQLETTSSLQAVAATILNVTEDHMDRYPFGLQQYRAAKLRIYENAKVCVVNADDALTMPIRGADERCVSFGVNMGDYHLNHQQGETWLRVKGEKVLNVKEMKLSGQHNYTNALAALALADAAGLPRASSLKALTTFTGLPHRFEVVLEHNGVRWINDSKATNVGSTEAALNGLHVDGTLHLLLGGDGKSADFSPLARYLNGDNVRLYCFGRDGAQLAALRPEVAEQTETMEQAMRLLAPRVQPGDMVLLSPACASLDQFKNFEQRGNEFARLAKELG

[5] = system: Staphylococcus aureus; assay: Antibacterial activity against Staphylococcus aureus; type: functional; details: GC 4543
[6] = system: Staphylococcus aureus; assay: Antibacterial activity against methicillin resistant Staphylococcus aureus; type: functional; details: GC 1131
[7] = biological target: T2, UDP-N-acetylenolpyruvoylglucosamine reductase (Escherichia coli K-12, UniProt P08373); assay: Inhibitory activity against MurB in Escherichia coli
T2 sequence (P08373 whole entry): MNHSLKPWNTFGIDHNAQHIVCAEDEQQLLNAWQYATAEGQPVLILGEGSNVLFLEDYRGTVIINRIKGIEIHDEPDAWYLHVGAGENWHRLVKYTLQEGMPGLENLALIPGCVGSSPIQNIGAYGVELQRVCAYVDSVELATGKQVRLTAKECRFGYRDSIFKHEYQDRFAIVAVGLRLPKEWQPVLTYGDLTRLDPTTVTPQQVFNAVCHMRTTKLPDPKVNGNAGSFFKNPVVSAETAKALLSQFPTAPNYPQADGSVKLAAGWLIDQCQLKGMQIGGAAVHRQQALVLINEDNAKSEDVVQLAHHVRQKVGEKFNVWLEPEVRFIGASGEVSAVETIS

[8] = biological target: UDP-N-acetylglucosamine 1-carboxyvinyltransferase (Escherichia coli K-12, UniProt P0A749); assay: Inhibitory activity against MurA in Escherichia coli
[9] = biological target: UDP-N-acetylmuramate--L-alanine ligase (Escherichia coli K-12, UniProt P17952); assay: Inhibitory activity against MurC in Escherichia coli
UDP-N-acetylmuramate--L-alanine ligase, sequence (P17952 whole entry): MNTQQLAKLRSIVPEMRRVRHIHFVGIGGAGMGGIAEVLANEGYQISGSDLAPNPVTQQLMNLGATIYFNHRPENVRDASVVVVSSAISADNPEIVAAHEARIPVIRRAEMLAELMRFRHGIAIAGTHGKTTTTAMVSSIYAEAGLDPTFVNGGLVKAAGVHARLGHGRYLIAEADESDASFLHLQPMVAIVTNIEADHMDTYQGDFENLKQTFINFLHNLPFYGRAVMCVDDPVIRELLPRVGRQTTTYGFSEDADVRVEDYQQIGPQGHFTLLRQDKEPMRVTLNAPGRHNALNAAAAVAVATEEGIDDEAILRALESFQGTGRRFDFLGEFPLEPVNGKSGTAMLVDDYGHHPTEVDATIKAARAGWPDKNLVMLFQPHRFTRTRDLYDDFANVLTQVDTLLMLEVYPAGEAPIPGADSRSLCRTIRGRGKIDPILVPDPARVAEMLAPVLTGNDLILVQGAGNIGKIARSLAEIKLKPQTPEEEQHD

UDP-N-acetylglucosamine 1-carboxyvinyltransferase, sequence (P0A749 whole entry): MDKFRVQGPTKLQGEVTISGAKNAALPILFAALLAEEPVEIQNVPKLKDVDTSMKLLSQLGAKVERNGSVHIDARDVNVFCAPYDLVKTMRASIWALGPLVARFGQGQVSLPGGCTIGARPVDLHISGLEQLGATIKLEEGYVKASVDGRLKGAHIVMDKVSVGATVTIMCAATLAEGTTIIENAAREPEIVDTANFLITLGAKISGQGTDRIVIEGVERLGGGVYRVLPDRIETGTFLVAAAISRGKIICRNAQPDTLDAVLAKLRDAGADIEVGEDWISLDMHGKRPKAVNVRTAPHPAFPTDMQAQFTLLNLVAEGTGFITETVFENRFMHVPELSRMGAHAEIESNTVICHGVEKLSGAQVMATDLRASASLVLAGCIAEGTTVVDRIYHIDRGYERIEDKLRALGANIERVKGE

Compound	MIC [1]	MIC [2]	MIC [3]	IC50 [4]	MIC [5]	MIC [6]	IC50 [7]	IC50 [8]	IC50 [9]
O=C1O/C(=C\c2ccc(-c3ccccc3)cc2)C(O)=C1c1cccc2ccccc12	8 µg/mL (≈ 20.5 µM)	4 µg/mL (≈ 10.2 µM)	32 µg/mL (≈ 82 µM)	> 64 µM	4 µg/mL (≈ 10.2 µM)	8 µg/mL (≈ 20.5 µM)	> 64 µM	–	–
O=C1O/C(=C\c2cccc3ccccc23)C(O)=C1c1ccc(Cl)cc1	8 µg/mL (≈ 22.9 µM)	0.5 µg/mL (≈ 1.43 µM)	16 µg/mL (≈ 45.9 µM)	> 71.7 µM	8 µg/mL (≈ 22.9 µM)	8 µg/mL (≈ 22.9 µM)	–	> 71.7 µM	–
O=C1O/C(=C\c2ccc(-c3cc(Cl)cc(Cl)c3)cc2)C(O)=C1c1cc(Cl)cc(Cl)c1	0.5 µg/mL (≈ 1.05 µM)	≤ 0.12 µg/mL	1 µg/mL (≈ 2.09 µM)	–	0.5 µg/mL (≈ 1.05 µM)	4 µg/mL (≈ 8.37 µM)	–	–	–
COc1ccc(C2=C(O)O/C(=C\c3cccc4ccccc34)C2=O)cc1	32 µg/mL (≈ 92.9 µM)	8 µg/mL (≈ 23.2 µM)	> 128 µg/mL	> 72.6 µM	64 µg/mL (≈ 186 µM)	32 µg/mL (≈ 92.9 µM)	> 72.6 µM	> 72.6 µM	46.5 µM
O=C1O/C(=C\C2CCCCC2)C(O)=C1c1cccc(C(F)(F)F)c1	32 µg/mL (≈ 94.6 µM)	≤ 0.12 µg/mL	64 µg/mL (≈ 189 µM)	> 73.9 µM	> 128 µg/mL	32 µg/mL (≈ 94.6 µM)	> 73.9 µM	> 73.9 µM	–
O=C1O/C(=C\c2cccc(C(F)(F)F)c2)C(O)=C1c1ccc(-c2ccccc2)c(F)c1	0.25 µg/mL (≈ 0.586 µM)	0.25 µg/mL (≈ 0.586 µM)	1 µg/mL (≈ 2.35 µM)	> 58.6 µM	2 µg/mL (≈ 4.69 µM)	2 µg/mL (≈ 4.69 µM)	–	23.5 µM	18.8 µM
O=C1O/C(=C\c2cccc(C(F)(F)F)c2)C(O)=C1c1ccc2ccccc2c1	8 µg/mL (≈ 20.9 µM)	8 µg/mL (≈ 20.9 µM)	32 µg/mL (≈ 83.7 µM)	> 65.4 µM	8 µg/mL (≈ 20.9 µM)	8 µg/mL (≈ 20.9 µM)	–	–	–
O=C1O/C(=C\c2cccc(C(F)(F)F)c2Cl)C(O)=C1c1ccc(-c2ccccc2)c(F)c1	0.5 µg/mL (≈ 1.09 µM)	0.25 µg/mL (≈ 0.543 µM)	2 µg/mL (≈ 4.34 µM)	–	1 µg/mL (≈ 2.17 µM)	1 µg/mL (≈ 2.17 µM)	–	–	–
O=C1O/C(=C\c2cccc(C(F)(F)F)c2)C(O)=C1c1ccc(Cl)cc1	8 µg/mL (≈ 21.8 µM)	1 µg/mL (≈ 2.73 µM)	16 µg/mL (≈ 43.6 µM)	> 68.2 µM	8 µg/mL (≈ 21.8 µM)	16 µg/mL (≈ 43.6 µM)	24.5 µM	38.2 µM	16.4 µM
O=C1O/C(=C\c2cccc(C(F)(F)F)c2)C(O)=C1c1ccc(-c2ccccc2)cc1	4 µg/mL (≈ 9.79 µM)	0.5 µg/mL (≈ 1.22 µM)	8 µg/mL (≈ 19.6 µM)	> 61.2 µM	4 µg/mL (≈ 9.79 µM)	4 µg/mL (≈ 9.79 µM)	12.2 µM	–	–
O=C1O/C(=C\c2cc(C(F)(F)F)ccc2Cl)C(O)=C1c1ccc(-c2ccccc2)c(F)c1	1 µg/mL (≈ 2.17 µM)	0.25 µg/mL (≈ 0.543 µM)	4 µg/mL (≈ 8.68 µM)	–	1 µg/mL (≈ 2.17 µM)	1 µg/mL (≈ 2.17 µM)	–	–	–
O=C1O/C(=C\c2ccc(-c3ccccc3)cc2)C(O)=C1c1ccc2ccccc2c1	4 µg/mL (≈ 10.2 µM)	2 µg/mL (≈ 5.12 µM)	8 µg/mL (≈ 20.5 µM)	> 64 µM	4 µg/mL (≈ 10.2 µM)	16 µg/mL (≈ 41 µM)	–	> 64 µM	–
O=C1O/C(=C\c2ccc(Cl)cc2)C(O)=C1c1ccc(-c2ccccc2)cc1	4 µg/mL (≈ 10.7 µM)	1 µg/mL (≈ 2.67 µM)	8 µg/mL (≈ 21.3 µM)	> 66.7 µM	16 µg/mL (≈ 42.7 µM)	16 µg/mL (≈ 42.7 µM)	–	> 66.7 µM	–
O=C1O/C(=C\c2cc(C(F)(F)F)ccc2F)C(O)=C1c1ccc(-c2ccccc2)c(F)c1	2 µg/mL (≈ 4.5 µM)	0.5 µg/mL (≈ 1.13 µM)	2 µg/mL (≈ 4.5 µM)	–	2 µg/mL (≈ 4.5 µM)	2 µg/mL (≈ 4.5 µM)	–	–	–
O=C1O/C(=C(/C(=O)Nc2cccc(C(F)(F)F)c2)c2ccccc2)C(O)=C1c1ccccc1	–	–	–	–	–	–	–	–	17.7 µM
O=C1O/C(=C\c2ccc3ccccc3c2)C(O)=C1c1cccc(C(F)(F)F)c1	4 µg/mL (≈ 10.5 µM)	0.5 µg/mL (≈ 1.31 µM)	16 µg/mL (≈ 41.8 µM)	> 65.4 µM	8 µg/mL (≈ 20.9 µM)	8 µg/mL (≈ 20.9 µM)	–	> 65.4 µM	–
O=C1O/C(=C\C2CCCCC2)C(O)=C1c1ccc2ccccc2c1	8 µg/mL (≈ 25 µM)	≤ 0.12 µg/mL	32 µg/mL (≈ 99.9 µM)	–	16 µg/mL (≈ 49.9 µM)	> 128 µg/mL	–	–	–
COc1ccccc1-c1ccc(/C=C2\OC(O)=C(c3cc(Cl)cc(Cl)c3)C2=O)cc1OC	8 µg/mL (≈ 17 µM)	0.5 µg/mL (≈ 1.07 µM)	8 µg/mL (≈ 17 µM)	> 53.3 µM	2 µg/mL (≈ 4.26 µM)	2 µg/mL (≈ 4.26 µM)	12.8 µM	36.2 µM	12.8 µM
O=C1O/C(=C\c2cccc3ccccc23)C(O)=C1c1cccc(C(F)(F)F)c1	8 µg/mL (≈ 20.9 µM)	0.5 µg/mL (≈ 1.31 µM)	16 µg/mL (≈ 41.8 µM)	> 65.4 µM	8 µg/mL (≈ 20.9 µM)	8 µg/mL (≈ 20.9 µM)	–	> 65.4 µM	–
O=C1O/C(=C\c2cccc(C(F)(F)F)c2)C(O)=C1c1cccc2ccccc12	32 µg/mL (≈ 83.7 µM)	8 µg/mL (≈ 20.9 µM)	> 128 µg/mL	> 65.4 µM	64 µg/mL (≈ 167 µM)	32 µg/mL (≈ 83.7 µM)	> 65.4 µM	> 65.4 µM	–
O=C1O/C(=C\c2cccc(-c3cccc(Cl)c3)c2)C(O)=C1c1cccc(Cl)c1	4 µg/mL (≈ 9.77 µM)	1 µg/mL (≈ 2.44 µM)	8 µg/mL (≈ 19.5 µM)	–	1 µg/mL (≈ 2.44 µM)	> 128 µg/mL	–	–	–
COc1ccc(C2=C(O)O/C(=C\c3cccc(C(F)(F)F)c3)C2=O)cc1	64 µg/mL (≈ 177 µM)	2 µg/mL (≈ 5.52 µM)	128 µg/mL (≈ 353 µM)	69 µM	128 µg/mL (≈ 353 µM)	1 µg/mL (≈ 2.76 µM)	> 69 µM	> 69 µM	38.6 µM
O=C1O/C(=C\c2ccccc2)C(O)=C1c1ccccc1 [PULVINONE]	–	–	–	–	–	–	–	–	≤ 30.3 µM
